Test results taken from patent publication US11718604B2, “4-amino-6-(1,3-benzodioxole)picolinates and their use as herbicides” (Dow AgroSciences LLC, priority 2018, dated 2023).

Key:
Assay type in all cases: in vivo
[1] = tested on: CYPES: yellow nutsedge (Cyperus esculentus); assay: Post-emergent herbicidal test, yellow nutsedge; details: post-emergence, 336 h, 14 days after application, read-out: Visual Growth Reduction (%) 14 Days After Application CYPES
Outline: (§1)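 Visual injury ratings (0 = no injury, 100% = complete kill) were made 14 d after post-emergence application versus untreated plants. Treatment: track-sprayer application at 187 L/ha to plants at first/second true leaf, in aqueous acetone/DMSO with crop oil concentrate and Triton X-155, as a high rate serially halved to 1/16×.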

[2] = tested on: SETFA: giant foxtail (Setaria faberi); assay: Post-emergent herbicidal test, giant foxtail; details: post-emergence, 336 h, 14 days after application, read-out: Visual Growth Reduction (%) 14 Days After Application SETFA
Outline: as §1

[3] = tested on: BRSNN: oilseed rape, canola (Brassica napus); assay: Post-emergent herbicidal test, oilseed rape; details: post-emergence, 336 h, 14 days after application, read-out: Visual Growth Reduction (%) 14 Days After Application BRSNN
Outline: as §1

[4] = tested on: VIOTR: wild violet (Viola tricolor); assay: Post-emergent herbicidal test, wild violet; details: post-emergence, 336 h, 14 days after application, read-out: Visual Growth Reduction (%) 14 Days After Application VIOTR
Outline: as §1

[5] = tested on: ABUTH: velvetleaf (Abutilon theophrasti); assay: Post-emergent herbicidal test, velvetleaf; details: post-emergence, 336 h, 14 days after application, read-out: Visual Growth Reduction (%) 14 Days After Application ABUTH
Outline: as §1

[6] = tested on: DIGSA: large crabgrass (Digitaria sanguinalis); assay: Post-emergent herbicidal test, large crabgrass; details: post-emergence, 336 h, 14 days after application, read-out: Visual Growth Reduction (%) 14 Days After Application DIGSA
Outline: as §1

[7] = tested on: CIRAR: Canada thistle (Cirsium arvense); assay: Post-emergent herbicidal test, Canada thistle; details: post-emergence, 336 h, 14 days after application, read-out: Visual Growth Reduction (%) 14 Days After Application CIRAR
Outline: as §1

[8] = tested on: ECHCG: barnyardgrass (Echinochloa crus-galli); assay: Post-emergent herbicidal test, barnyardgrass; details: post-emergence, 336 h, 14 days after application, read-out: Visual Growth Reduction (%) 14 Days After Application ECHCG
Outline: as §1

[9] = tested on: EPHHL: wild poinsettia (Euphorbia heterophylla); assay: Post-emergent herbicidal test, wild poinsettia; details: post-emergence, 336 h, 14 days after application, read-out: Visual Growth Reduction (%) 14 Days After Application EPHHL
Outline: as §1

[10] = tested on: IPOHE: ivyleaf morningglory (Ipomoea hederacea); assay: Post-emergent herbicidal test, ivyleaf morningglory; details: post-emergence, 336 h, 14 days after application, read-out: Visual Growth Reduction (%) 14 Days After Application IPOHE
Outline: as §1

[11] = tested on: SORVU: shattercane (Sorghum bicolor); assay: Post-emergent herbicidal test, shattercane; details: post-emergence, 336 h, 14 days after application, read-out: Visual Growth Reduction (%) 14 Days After Application SORVU
Outline: as §1

Molecule `COC(=O)c1nc(-c2ccc(F)c3c2OCO3)c(F)c(N)c1Cl` [Compound 15] has a pest or weed control at 17.5 g/ha ([1]; 17.5 g ai/ha) of 0%, a pest or weed control at 35 g/ha ([1]; 35 g ai/ha) of 0% and a pest or weed control at 70 g/ha ([1]; 70 g ai/ha) of 0%. For the same molecule, the pest or weed control at 140 g/ha ([1]; 140 g ai/ha) was 0%, the pest or weed control at 17.5 g/ha ([2]; 17.5 g ai/ha) was 0% and the pest or weed control at 35 g/ha ([2]; 35 g ai/ha) was 0%. The pest or weed control at 70 g/ha ([2]; 70 g ai/ha) was 0%, the pest or weed control at 140 g/ha ([2]; 140 g ai/ha) was 20% and the pest or weed control at 17.5 g/ha ([3]; 17.5 g ai/ha) was 20%. It also gave a pest or weed control at 35 g/ha ([3]; 35 g ai/ha) of 40%, a pest or weed control at 70 g/ha ([3]; 70 g ai/ha) of 95% and a pest or weed control at 140 g/ha ([3]; 140 g ai/ha) of 100%. It also gave a pest or weed control at 17.5 g/ha ([4]; 17.5 g ai/ha) of 30%, a pest or weed control at 35 g/ha ([4]; 35 g ai/ha) of 60% and a pest or weed control at 70 g/ha ([4]; 70 g ai/ha) of 70%. The pest or weed control at 140 g/ha ([4]; 140 g ai/ha) was 80%, the pest or weed control at 17.5 g/ha ([5]; 17.5 g ai/ha) was 70% and the pest or weed control at 35 g/ha ([5]; 35 g ai/ha) was 85%. The pest or weed control at 70 g/ha ([5]; 70 g ai/ha) was 90%, the pest or weed control at 140 g/ha ([5]; 140 g ai/ha) was 100% and the pest or weed control at 17.5 g/ha ([6]; 17.5 g ai/ha) was 0%. For the same molecule, the pest or weed control at 35 g/ha ([6]; 35 g ai/ha) was 0%, the pest or weed control at 70 g/ha ([6]; 70 g ai/ha) was 0% and the pest or weed control at 140 g/ha ([6]; 140 g ai/ha) was 0%. The pest or weed control at 17.5 g/ha ([7]; 17.5 g ai/ha) was 80%, the pest or weed control at 35 g/ha ([7]; 35 g ai/ha) was 85% and the pest or weed control at 70 g/ha ([7]; 70 g ai/ha) was 90%. The pest or weed control at 140 g/ha ([7]; 140 g ai/ha) was 95%, the pest or weed control at 17.5 g/ha ([8]; 17.5 g ai/ha) was 0% and the pest or weed control at 35 g/ha ([8]; 35 g ai/ha) was 0%. The pest or weed control at 70 g/ha ([8]; 70 g ai/ha) was 0%, the pest or weed control at 140 g/ha ([8]; 140 g ai/ha) was 0% and the pest or weed control at 17.5 g/ha ([9]; 17.5 g ai/ha) was 0%. The pest or weed control at 35 g/ha ([9]; 35 g ai/ha) was 0%, the pest or weed control at 70 g/ha ([9]; 70 g ai/ha) was 0% and the pest or weed control at 140 g/ha ([9]; 140 g ai/ha) was 0%. The pest or weed control at 17.5 g/ha ([10]; 17.5 g ai/ha) was 0%, the pest or weed control at 35 g/ha ([10]; 35 g ai/ha) was 0% and the pest or weed control at 70 g/ha ([10]; 70 g ai/ha) was 0%. The pest or weed control at 140 g/ha ([10]; 140 g ai/ha) was 0%, the pest or weed control at 17.5 g/ha ([11]; 17.5 g ai/ha) was 0% and the pest or weed control at 35 g/ha ([11]; 35 g ai/ha) was 0%. The pest or weed control at 70 g/ha ([11]; 70 g ai/ha) was 0% and the pest or weed control at 140 g/ha ([11]; 140 g ai/ha) was 20%.
